What all share (format): cell membranes
Assay [1] addresses T1, Cannabinoid receptor 2 (Homo sapiens, UniProt P34972). The assay is described as follows: Displacement of [3H]-CP55940 from human recombinant CB2 receptor expressed in CHO-K1 cell membrane at 1 uM measured after 3 hrs by scintillation spectrometry. (In general: In a radioligand displacement assay an active substance lowers the binding of a labelled ligand.)
Assay [2] concerns the target T2, Cannabinoid receptor 1 (Homo sapiens, UniProt P21554). Briefly: Displacement of [3H]-CP55940 from human recombinant CB1 receptor expressed in CHO-K1 cell membrane at 1 uM measured after 3 hrs by scintillation spectrometry.
For assay [3], the target named is T1, Cannabinoid receptor 2. The assay is described as follows: Displacement of [3H]-CP55940 from human recombinant CB2 receptor expressed in CHO-K1 cell membrane measured after 3 hrs by scintillation spectrometry. As to conditions: for Ki: read-out: pKi (converted).
Assay [4] has as its target T2, Cannabinoid receptor 1. The assay is described as follows: Displacement of [3H]-CP55940 from human recombinant CB1 receptor expressed in CHO-K1 cell membrane measured after 3 hrs by scintillation spectrometry. The conditions noted are these: for Ki: read-out: pKi (converted); for pKi: read-out: Ki.

pKi: −log10 of the molar value.

T1 sequence (P34972 whole entry): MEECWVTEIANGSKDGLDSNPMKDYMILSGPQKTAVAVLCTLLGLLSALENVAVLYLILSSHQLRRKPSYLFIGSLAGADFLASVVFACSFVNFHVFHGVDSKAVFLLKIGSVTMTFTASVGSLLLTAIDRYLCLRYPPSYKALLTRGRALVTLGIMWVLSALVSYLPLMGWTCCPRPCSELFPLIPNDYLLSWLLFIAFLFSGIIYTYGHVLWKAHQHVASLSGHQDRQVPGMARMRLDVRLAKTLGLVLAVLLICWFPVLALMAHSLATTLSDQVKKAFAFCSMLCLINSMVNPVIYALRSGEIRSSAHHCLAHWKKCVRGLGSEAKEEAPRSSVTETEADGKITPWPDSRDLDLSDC
T2 sequence (P21554 whole entry): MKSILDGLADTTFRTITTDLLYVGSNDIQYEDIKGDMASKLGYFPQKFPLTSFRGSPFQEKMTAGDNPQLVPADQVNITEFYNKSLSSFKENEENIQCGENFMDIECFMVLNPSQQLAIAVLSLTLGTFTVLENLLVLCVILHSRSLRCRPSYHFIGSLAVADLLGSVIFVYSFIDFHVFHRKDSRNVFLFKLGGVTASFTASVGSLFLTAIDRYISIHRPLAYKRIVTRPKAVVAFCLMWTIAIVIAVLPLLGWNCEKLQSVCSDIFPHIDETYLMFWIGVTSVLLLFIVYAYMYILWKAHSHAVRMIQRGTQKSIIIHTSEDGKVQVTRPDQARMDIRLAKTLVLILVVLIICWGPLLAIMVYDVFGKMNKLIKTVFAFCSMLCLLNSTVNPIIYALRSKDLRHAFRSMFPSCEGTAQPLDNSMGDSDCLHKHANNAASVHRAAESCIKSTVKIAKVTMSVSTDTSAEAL

One may read the inhibition as the change of the read-out against control, counted positive when it falls. Turning to `CCCCCCC(C)(C)c1cc(OC)c2cc(Cc3ccccc3OC)c(=O)oc2c1`, the inhibition in assay [1] (filed as agonist) and in assay [2] (filed as agonist) was above 50% in each case.

As for `CCCCCc1cc(OC)c2cc(Cc3ccncc3)c(=O)oc2c1`, the Ki in assay [3] and in assay [4] was above 1000 nM throughout. For the same molecule, the inhibition amounted to 11% in assay [1] and 0% in assay [2].

On to `CCCCC1(c2cc(O)c3cc(C)c(=O)oc3c2)CCCC1`, for which the Ki in assay [3] is 1000 nM; in assay [4], above 1000 nM. For the same molecule, the figures for the inhibition in assay [1] (filed as agonist) and in assay [2] were 49% and -10%, respectively.

As to `CCCCC(C)(C)c1cc(O)c2cc(Cc3ccccc3O)c(=O)oc2c1`, the Ki in assay [3] and in assay [4] was above 1000 nM throughout. Further, the figures for the inhibition in assay [1] and in assay [2] were 37% and 24%, respectively.

As for `CCCCC1(c2cc(OC)c3cc(C)c(=O)oc3c2)CCCC1`, the Ki in assay [3] and in assay [4] was above 1000 nM throughout. Also, the inhibition was found to be 1% in assay [1] and 16% in assay [2].

For the molecule `CCCCCc1cc(O)c2cc(Cc3ccccn3)c(=O)oc2c1`, the Ki in assay [3] and in assay [4] was above 1000 nM throughout.

In the case of `CCCCCCC(C)(C)c1cc(OC)c2cc(Cc3ccccc3C(F)(F)F)c(=O)oc2c1`, the Ki in assay [3] and in assay [4] was above 1000 nM throughout. Also, the results for the inhibition in assay [1] and in assay [2] were 3% and 26%, respectively.

For `CCCCC1(c2cc(OC)c3cc(Cc4ccncc4)c(=O)oc3c2)CCCCC1`, the Ki in assay [3] and in assay [4] was above 1000 nM each time. Also, the inhibition was determined as 3% in assay [1] and 26% in assay [2].

A word on the pKi: it is the negative decadic logarithm of the Ki, by convention in mol/L. Consider `CCCCC(C)(C)c1cc(OC)c2cc(Cc3ccccc3)c(=O)oc2c1`, for which the Ki in assay [3] is above 1000 nM. In addition, the inhibition is 39% in assay [1] and above 50% in assay [2] (filed as agonist). Moreover, in assay [4], the pKi was 6.31.

Regarding `CCCCC(C)(C)c1cc(OC)c2cc(Cc3ccccc3C)c(=O)oc2c1`, in assay [3], the Ki is above 1000 nM. Moreover, the inhibition is 32% in assay [1] and above 50% in assay [2] (filed as agonist). Further, in assay [4], the negative-log Ki (pKi) is 6.66.

With `CCCCC1(c2cc(OC)c3cc(-c4ccccc4OC)c(=O)oc3c2)CCCC1`, the Ki in assay [3] and in assay [4] was above 1000 nM each time. Further, the inhibition in assay [2] is -10%.

For the molecule `CCCCC(C)(C)c1cc(O)c2cc(Cc3ccccc3C)c(=O)oc2c1`, the Ki in assay [3] and in assay [4] was above 1000 nM in each case. Moreover, the inhibition in assay [1] (filed as agonist) turned out to be 41%; in assay [2], 30%.

For the molecule `CCCCCCC(C)(C)c1cc(O)c2cc(Cc3ccccc3)c(=O)oc2c1`, the inhibition in assay [1] (filed as agonist) and in assay [2] (filed as agonist) was above 50% in each case.

Take `CCCCC1(c2cc(O)c3cc(-c4ccc(C(F)(F)F)cc4)c(=O)oc3c2)CCCC1`: the Ki in assay [3] and in assay [4] was above 1000 nM each time. In addition, the inhibition in assay [1] is -10%.

For the molecule `CCCCC1(c2cc(O)c3cc(Cc4ccncc4)c(=O)oc3c2)CCCC1`, the Ki in assay [3] and in assay [4] was above 1000 nM in each case. For the same molecule, in assay [1], the inhibition amounted to 21%.

On to `CCCCC1(c2cc(O)c3cc(-c4ccccc4)c(=O)oc3c2)CCCC1`, for which the Ki in assay [3] and in assay [4] was above 1000 nM each time.

With `CCCCCc1cc(O)c2cc(Cc3ccncc3)c(=O)oc2c1`, the Ki in assay [3] and in assay [4] was above 1000 nM each time. In addition, the inhibition in assay [1] was -5%.

Turning to `CCCCC1(c2cc(OC)c3cc(CC)c(=O)oc3c2)CCCC1`, the Ki in assay [3] and in assay [4] was above 1000 nM each time. Besides, the figures for the inhibition in assay [1] and in assay [2] were 0% and 33%, respectively.

Consider `CCCCCCC(C)(C)c1cc(OC)c2cc(Cc3ccccc3)c(=O)oc2c1`, for which the inhibition in assay [1] (filed as agonist) and in assay [2] (filed as agonist) was above 50% each time.

On to `CCCCC1(c2cc(O)c3cc(Cc4ccncc4)c(=O)oc3c2)CCCCC1`, for which the Ki in assay [3] and in assay [4] was above 1000 nM each time. Moreover, the inhibition in assay [1] (filed as agonist) came out at 46%; in assay [2], 5%.

As for `CCCCC1(c2cc(O)c3cc(Cc4ccccn4)c(=O)oc3c2)CCCC1`, the Ki in assay [3] and in assay [4] was above 1000 nM each time. Further, the inhibition in assay [1] (filed as agonist) stood at 44%; in assay [2] it was 34%.

For the molecule `CCCCCCC(C)(C)c1cc(O)c2cc(Cc3ccccc3C(F)(F)F)c(=O)oc2c1`, the Ki in assay [3] is above 1000 nM; in assay [4], 1000 nM. In addition, the inhibition in assay [1] (filed as agonist) is 42%; in assay [2] (filed as agonist), 49%.

For `CCCCC1(c2cc(OC)c3cc(Cc4cccnc4)c(=O)oc3c2)CCCCC1`, the Ki in assay [3] and in assay [4] was above 1000 nM each time. For the same molecule, the inhibition in assay [1] stood at 11%; in assay [2] it was 6%.

As to `CCCCC1(c2cc(OC)c3cc(-c4ccccc4C)c(=O)oc3c2)CCCC1`, the Ki in assay [3] and in assay [4] was above 1000 nM throughout.

For `CCCCC1(c2cc(OC)c3cc(-c4ccccc4)c(=O)oc3c2)CCCC1`, the Ki in assay [3] and in assay [4] was above 1000 nM in each case. In addition, the inhibition is -8% in assay [1] and 34% in assay [2].

Consider `CCCCC1(c2cc(O)c3cc(-c4ccccc4O)c(=O)oc3c2)CCCC1`, for which the Ki in assay [3] and in assay [4] was above 1000 nM throughout. The inhibition in assay [1] is -2%.

Turning to `CCCCC1(c2cc(OC)c3cc(-c4ccc(C(F)(F)F)cc4)c(=O)oc3c2)CCCC1`, the Ki in assay [3] and in assay [4] was above 1000 nM throughout. Besides, the inhibition in assay [1] was -4%; in assay [2], 3%.

For the molecule `CCCCc1cc2c(OC)cc(C3(CCCC)CCCC3)cc2oc1=O`, the Ki in assay [3] and in assay [4] was above 1000 nM in each case. Further, the values for the inhibition in assay [1] and in assay [2] were -1% and 15%, respectively.

As to `CCCCC1(c2cc(OC)c3cc(C)c(=O)oc3c2)CCCCC1`, the Ki in assay [3] and in assay [4] was above 1000 nM in each case. In addition, the inhibition in assay [2] worked out at 9%.

On to `CCCCC1(c2cc(OC)c3cc(CCC)c(=O)oc3c2)CCCC1`, for which the Ki in assay [3] and in assay [4] was above 1000 nM throughout. Besides, the inhibition amounted to 38% in assay [1] and 32% in assay [2].

As to `CCCCCCC(C)(C)c1cc(O)c2cc(Cc3ccccc3O)c(=O)oc2c1`, the inhibition in assay [1] (filed as agonist) and in assay [2] (filed as agonist) was above 50% each time.

In the case of `CCCCC1(c2cc(O)c3cc(-c4ccccc4C)c(=O)oc3c2)CCCC1`, the Ki in assay [3] and in assay [4] was above 1000 nM throughout. For the same molecule, the inhibition in assay [1] (filed as agonist) is 43%; in assay [2] it was 4%.

With `CCCCCCC(C)(C)c1cc(O)c2cc(Cc3ccccc3C)c(=O)oc2c1`, the pKi in assay [3] (read-out: Ki) is 6.65. Also, the inhibition was above 50% in assay [1] (filed as agonist) and 47% in assay [2] (filed as agonist). Also, the Ki in assay [4] was above 1000 nM.

For `CCCCC1(c2cc(OC)c3cc(CCC)c(=O)oc3c2)CCCCC1`, the Ki in assay [3] and in assay [4] was above 1000 nM throughout. The inhibition in assay [1] is -4%; in assay [2], 18%.

As to `CCCCCc1cc(O)c2cc(Cc3cccnc3)c(=O)oc2c1`, the Ki in assay [3] and in assay [4] was above 1000 nM each time.

`CCCCC1(c2cc(OC)c3cc(Cc4ccccn4)c(=O)oc3c2)CCCC1`: the Ki in assay [3] and in assay [4] was above 1000 nM each time. In addition, the inhibition in assay [1] stood at 20%; in assay [2], 29%.

As for `CCCCc1cc2c(OC)cc(C3(CCCC)CCCCC3)cc2oc1=O`, the Ki in assay [3] and in assay [4] was above 1000 nM each time. Further, the inhibition in assay [1] stood at 2%.

For the origin of these results see ChEMBL document CHEMBL4842314, “Synthesis and SAR evaluation of coumarin derivatives as potent cannabinoid receptor agonists” (Eur J Med Chem, 2021).
